Data as given in patent US8372866B2, “2-aryl and 2-heteroaryl 4H-1-benzopyran-4-one-6-amidino derivatives, new pharmacological agents for the treatment of arthritis, cancer and related pain” (Rottapharm S.p.A., priority 2008, dated 2013).
Counter-ions that a name gives are not always drawn. Like-named read-outs stand apart in the source and are kept apart here.

How the values were obtained:
[1] = tested on: Zymosan-induced mechanical hyperalgesia; assay: Zymosan-induced mechanical hyperalgesia (Randall-Selitto), model of inflammatory pain; format: in vivo, rat; conditions: for ED50: read-out: ED50 4 hrs
Method: In this model, typically a male Sprague-Dawley or Wistar rat (200-250 g) receives an interplantar injection of 3 mg/100 μl zymosan into one hind paw. A marked inflammation occurs in this hind paw. Drugs are administered orally for evaluation of efficacy, 30 min. before the inflammatory insult. […] The quantisation of the analgesic effect is achieved by an analgesimeter, which consists in applying to the inflamed paw an increasing weight (from 130-140 g up to 500 g). […] For each test compound, at least three doses were used, with 8 animals per group. Compounds of the invention were tested at 10, 20 and 40 mg/Kg.

[2] = target: T1, recombinant human aggrecanase 1 (ADAMTS-4) (Homo sapiens, UniProt O75173); assay: InviLISA Aggrecanase activity assay, aggrecanase 1; format: biochemical; conditions: inhibitors tested at 10 μM final concentration
T1 construct: ADAMTS-4 aminoacids F213-A579 with C-terminal tag; purchased Invitek GmbH, Berlin
T1 sequence (O75173 213-579): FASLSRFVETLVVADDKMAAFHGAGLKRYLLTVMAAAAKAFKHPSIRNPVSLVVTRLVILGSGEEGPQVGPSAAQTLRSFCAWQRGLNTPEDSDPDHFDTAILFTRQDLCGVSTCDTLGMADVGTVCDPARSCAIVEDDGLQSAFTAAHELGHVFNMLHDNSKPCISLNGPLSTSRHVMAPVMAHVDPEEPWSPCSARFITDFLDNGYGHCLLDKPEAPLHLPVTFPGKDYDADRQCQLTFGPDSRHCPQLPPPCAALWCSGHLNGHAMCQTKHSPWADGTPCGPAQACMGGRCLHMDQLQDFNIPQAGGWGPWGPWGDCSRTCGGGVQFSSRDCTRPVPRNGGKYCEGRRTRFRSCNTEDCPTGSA
Method: (§1) The InviLISA Aggrecanase activity assay (Invitek GmbH, Berlin) was used to screen and characterise aggrecanase inhibitors. The assay was carried out in two steps, according to Will et al. (Will H, Dettloff M, Bendzko P, Svenshnikov P, A Quantitative Assay for aggrecanase Activity; 2005, Journal of Biomolecular Techniques, 16 (4), 459-472). A recombinant fragment of human aggrecan interglobular domain (aggrecan-IGD; T331-G458) is first digested with aggrecanase. Proteolytic cleavage of the substrate releases an aggrecan peptide with the N-terminal sequence ARGSVIL (ARGSVIL-peptide), that was then quantified with two monoclonal anti-peptide antibodies (ELISA module). For precise calculation of product, ARGSVIL-peptide standard concentrations were run in parallel.
(§2) 1) Proteolysis of aggrecan-IGD by aggrecanase. Aggrecan-IGD was incubated with standard recombinant human aggrecanase 1 (ADAMTS-4 aminoacids F213-A579 with C-terminal tag) or standard recombinant human aggrecanase 2 (ADAMTS-5 aminoacids S262-G625 with C-terminal tag) in the absence (total enzymatic activity) or presence (modulated enzymatic activity) of inhibitors to be tested. Enzymes were pre-incubated with the inhibitors or the appropriate concentration of diluent as control (DMSO 0.25% final concentration in proteolysis), at 4° C. for 30 min prior to assaying their activity. Five microliters of mix enzyme-inhibitor were added to the substrate (0.1 μM final concentration) in a total volume of 100 μL and incubated for 15 minutes at 37° C. The reaction was terminated with EDTA-containing buffer. The inhibitors were tested at 10 μM final concentration and compounds achieving ≧50% inhibitory effect were evaluated for IC50 calculation, in a range generally extended from 0.1 to 10 μM final concentration.
(§3) 2) Aggrecan peptide ELISA. ARGSVIL-peptide standard, proteolytic digestion of Aggrecan-IGD with standard aggrecanases and test samples were incubated in microtiter wells pre-coated with anti-ARGSVIL-neoepitope antibody. ARGSVIL-peptide is bound to the coated antibody, while other components are removed by washing and aspiration. The bound ARGSVIL-peptide was detected with a second peroxidase-labelled antibody. Any excess of the conjugate was removed by washing and aspiration. The amount of peroxidase bound to different wells was determined in reactions with peroxidase substrate TMB. The reactions are stopped by addition of sulphuric acid solution and absorbance is read at 450 nm in a microtiter plate spectrophotometer.

[3] = target: T2, recombinant human aggrecanase 2 (ADAMTS-5) (Homo sapiens, UniProt Q9UNA0); assay: InviLISA Aggrecanase activity assay, aggrecanase 2; format: biochemical; conditions: inhibitors tested at 10 μM final concentration
T2 construct: ADAMTS-5 aminoacids S262-G625 with C-terminal tag; purchased Invitek GmbH, Berlin
T2 sequence (Q9UNA0 262-625): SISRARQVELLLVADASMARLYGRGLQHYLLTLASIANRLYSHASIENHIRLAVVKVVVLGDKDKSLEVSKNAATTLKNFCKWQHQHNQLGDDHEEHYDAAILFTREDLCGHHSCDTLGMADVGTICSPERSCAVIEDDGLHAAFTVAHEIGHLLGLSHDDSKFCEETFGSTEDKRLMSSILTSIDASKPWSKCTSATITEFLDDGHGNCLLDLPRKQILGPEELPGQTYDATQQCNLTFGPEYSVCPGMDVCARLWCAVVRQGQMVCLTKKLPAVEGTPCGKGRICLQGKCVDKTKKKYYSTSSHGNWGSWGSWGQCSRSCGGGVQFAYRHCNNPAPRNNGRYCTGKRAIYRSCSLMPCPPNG
Method: as §1, §2, §3

[4] = tested on: CFA-induced prolonged inflammation; assay: CFA model of chronic inflammatory pain (Randall-Selitto); format: in vivo, rat; conditions: for MPE 0.5 hrs / MPE 1.5 hrs / MPE 3 hrs: NE = not effective
[5] = tested on: mechanical hyperalgesia associated with STZ-induced diabetes; assay: STZ-induced diabetes mechanical hyperalgesia, model of neuropathic pain (Randall-Selitto); format: in vivo, rat
Method: Painful diabetic neuropathy is one of the most common complications of insulin-dependent diabetes in man; in particular, diabetes can be associated with neuropathic pain which fails to be treated by classical analgesics. Streptozotocin (STZ)-induced diabetes in the rat has been increasingly used as a model of painful diabetic neuropathy to assess the efficacies of potential analgesic agents (C. Courteix, Pain 1993, 53, 81-8). A representative compound of the invention was tested for efficacy in reducing mechanical hyperalgesia associated with STZ-induced diabetes in the rat, according to the experimental model as described by the literature. Diabetes was produced with the injection of a single dose (75 mg/Kg i.p.) of STZ. In the following four weeks after the induction of diabetes the clinical symptoms (weight, body and skin temperature, motility and hyperglycemia) progressively developed by the animals, are strictly monitored.
After four weeks, the scores obtained in diabetic rats to various pain stimuli (in particular mechanical stimuli) were greater than those in normal rats, indicating hyperalgesia. The hyperalgesia induced by diabetes was evaluated using the Randall-Selitto method as above described, and quantitated using the analgesimeter. Also in this case, the difference in the mechanical pain threshold between the basal value (generally 230-250 g) and the one tolerated by the animals treated with the drug, is defined as mechanical hyperalgesia. The compound of the invention was administered i.p. (solution, Tween 80, 10% in saline) at different doses, and mechanical hyperalgesia was measured at the reported time, as maximum percent effect (MPE) which represents the difference (%) in pain threshold between the animals treated with the drug and the controls that received only the vehicle, compared with the weight borne by naïf non-diabetic controls. A 100% protection means that the diabetic animals treated with the compound can tolerate the same stimulus (weight) as the naïf non-diabetic animals. MPE higher than 100% means that the diabetic animal treated with the compound can tolerate stimuli (weight) higher than the control non-diabetic animals (hypoalgesia).
In Table 4, the effect of a representative compound of formula (I), in the above described model of neuropathic pain, is compared with some known pharmacological standards used for the clinical treatment of this pathology. In particular, from the MPE data at 0.5 hrs, the doses yielding a protection of 50% (ED50) and 100% (ED100) have been calculated.

[6] = rat, OS, 4 hrs after zymosan, NC = not calculable
[7] = 10 mg/Kg IP, NE = not effective
[8] = 30 mg/Kg IP, NE = not effective

Question: With N=C(CC1CC1)Nc1ccc2oc(-c3ccc(-n4ccnc4)cc3)c(O)c(=O)c2c1 (as salt: hydrochloride) (hydrate or solvate) [Example 6, 2-[(4-imidazol-1-yl)-phenyl]-3-hydroxy-6-[(1-iminoethyl-2-cyclopropyl)amino]-4H-1-benzopyran-4-one dihydrochloride monohydrate] as the molecule, how does the melting point read?
Answer: 249.1 to 251.1 °C

Question: For COc1ccc(-c2oc3ccc(NC(C)=N)cc3c(=O)c2O)cc1 (as salt: hydrochloride) (hydrate or solvate) [Example 12, 2-(4-methoxyphenyl)-3-hydroxy-6-[(1-iminoethyl)amino]-4H-1-benzopyran-4-one hydrochloride monohydrate], which melting point is on record?
Answer: 260.1 to 261.1 °C

Question: For CC(=N)Nc1ccc2oc(-c3ccccc3)cc(=O)c2c1 (as salt: hydrochloride) [Example 1, 2-phenyl-6-[(1-iminoethyl)amino]-4H-1-benzopyran-4-one hydrochloride], which melting point is on record?
Answer: 278.2 to 278.8 °C

Question: Which melting point does the source give for CC(=N)Nc1ccc2oc(-c3ccc4c(c3)OCO4)cc(=O)c2c1 (as salt: hydrochloride) [Example 4, 2-(benzo[1,3]dioxol-5-yl)-6-[(1-iminoethyl)amino]-4H-1-benzopyran-4-one hydrochloride] here?
Answer: 272.7 to 273.3 °C

Question: With Cc1ccc(-c2cc(C(F)(F)F)nn2-c2ccc(S(N)(=O)=O)cc2)cc1 [Celecoxib, reference compound] as the molecule, how does the ED50 [1, 6] read?
Answer: 9 mg/kg

Question: What does the source list for CC(=N)Nc1ccc2oc(-c3ccccc3)cc(=O)c2c1 [Example 1, 2-phenyl-6-[(1-iminoethyl)amino]-4H-1-benzopyran-4-one hydrochloride]?
Answer: inhibition at 10 µM [2]: 10%; inhibition at 10 µM [3]: 30%; ED50 ([1]; Rattus norvegicus, 4 h): 7.9 mg/kg; ED100 4 hrs [1, 6]: 19 mg/kg; MPE 0.5 hrs ([4]; 3 mg/Kg IP): 30%; MPE 1.5 hrs ([4]; 3 mg/Kg IP): 50%; MPE 3 hrs ([4]; 3 mg/Kg IP): 40%; MPE 0.5 hrs ([4]; 10 mg/Kg IP): 62%; MPE 1.5 hrs ([4]; 10 mg/Kg IP): 39%; MPE 0.5 hrs ([4]; 30 mg/Kg IP): 261%; MPE 1.5 hrs ([4]; 30 mg/Kg IP): 190%; MPE 3 hrs ([4]; 30 mg/Kg IP): 37%; ED100 0.5 hrs ([4]; IP, calculated from the MPE data at 0.5 hrs): 8.06 mg/kg; ED50 ([4]; Rattus norvegicus, ip, 0.5 h, read-out: ED50 0.5 hrs): 4.86 mg/kg; MPE 0.5 hrs ([5]; 3 mg/Kg IP, NE = not effective): 74%; MPE 1.5 hrs ([5]; 3 mg/Kg IP, NE = not effective): 25%; MPE 0.5 hrs [5, 7]: 109%; MPE 1.5 hrs [5, 7]: 54%; MPE 0.5 hrs [5, 8]: 113%; MPE 1.5 hrs [5, 8]: 39%; MPE 3 hrs [5, 8]: 39%; MPE 6 hrs [5, 8]: 31%; protection ([5]; at the doses of 10 and 30 mg/kg): higher than 100%; efficacy in STZ neuropathic pain paradigm ([5]; rat, in vivo): high efficacy
